How the values were obtained:
[1] = test system: eNOS-/- mouse VSMCs (vascular smooth muscle cells); experiment: ALP activity, inhibition of osteogenic differentiation of VSMCs; assay type: cell-based; parameters: dose or concentration left out as unconfirmed; settings: of each inhibitor for 7 days, 48-well plate, compared to negative control group not treated with the DPP-4 inhibitor
Protocol: (§1) The aortas, extracted from the eNOS-/- mice and the wild-type mice together with the hearts in Example 2, were washed in serum-free M199 (Cellgro), cut to small pieces, and then cultured in M199 containing 20% fetal calf serum and 3 mg/mL collagenase (Sigma) in a water bath at 37°C for 3 hours. […] The isolated vascular smooth muscle cells were seeded at a concentration of 30%, and after 24 hours, the medium was replaced with osteogenic basal medium (Osteogenic SingleQuots, Lonza, USA). The medium was replaced at 3-day intervals during 28 days of culture.
In order to examine the effects of DPP-4 inhibitors other than sitagliptin on the inhibition of valvular calcification, the effects of treatment with various kinds of DPP-4 inhibitors on the inhibition of osteogenic differentiation of eNOS-/- mouse VSMCs (vascular smooth muscle cells) were evaluated.
eNOS-/- mouse VSMCs cultured in a 48-well plate were treated with […] of each of alogliptin, evogliptin, linaglipin, saxagliptin and vildagliptin for 7 days, and ALP activity in the cells was measured. As a result, ALP activity inhibition of 50% or lower compared to that in a negative control group not treated with the DPP-4 inhibitor was observed.

DPP-4 [2] = settings: stated as known; cited from earlier work
NF-κB = NF-κB activity in VSMCs; assay type: cell-based; settings: wild-type or eNOS-/- mouse VSMCs (FIG. 7d)
Excerpt: NF-κB activity in VSMCs is inhibited by NO. It was shown that NF-κB activity was higher in eNOS-/- mouse VSMCs than in wild-type mouse VSMCs, and this activity was reduced by treatment with DETA-NO (FIG. 7d). Because the DPP4 promoter has a putative NF-κB binding site, the present inventors determined whether NF-κB activity could directly regulate DPP-4 promoter activity.

DPP-4 promoter = DPP-4 promoter activity in VSMCs (luciferase reporter); assay type: cell-based; settings: wild-type or eNOS-/- mouse VSMCs (FIG. 7c)
Protocol: To obtain more direct evidence for the regulatory function of NO in a decrease in DPP-4 expression, it was determined whether DPP-4 promoter activity would be regulated by NO.
First, VSMCs were cultured in a 6-well plate to reach a confluency of 80%. Using Lipofectamine2000 (Life Technology), a DPP-4 reporter containing a normal or mutated NF-κB binding site was cloned into a pGL3-basic vector (Promega), and the cells were transfected with the vector. After 24 hours, firefly and Renilla luciferase activities in the cells were measured using a Dual-Glo luciferase assay system, (Promega). The firefly luciferase activity was normalized with the Renilla luciferase activity.

DPP-4 [3] = experiment: DPP-4 mRNA and protein expression in VSMCs (RT-PCR, immunoblot); assay type: cell-based, mouse
Protocol: as §1
In this Example, vascular smooth muscle cells obtained according to the method of Example 3 were treated with DETA-NONOate (DETA-NO) that is an NO donor.

eNOS-/- mice = experiment: Osteosense680 imaging of aortic calcification / osteogenic activity after oral administration; assay type: in vivo; settings: oral sitagliptin 15 mg/kg/day for 12 weeks, Osteosense680 imaging (FIGS. 9a, 9b)
Protocol: (§2) C57BL/6J eNOS-/- (endothelial nitric oxide synthase knockout) mice (8-week old, n = 10, The Jackson Laboratory, Bar Harbor, Me, USA) and C57BL/6J wild-type mice (8-week old, wide type, WT, n = 10) were used. After purchase, the mice were fed with standard rodent feed up to 3 months of age, and administered with saline or sitagliptin (15 mg/kg/ day, Merck & Co., Inc.) for 12 weeks.
To detect osteogenic activity in the eNOS-/- mice, a bisphosphonate-conjugated imaging agent (Osteosense680, VisEn Medical Inc.) was injected via the tail vein. Osteosense680 binds to a calcified site (particularly hydroxyapatite) in vivo and acts as an imaging agent to detect osteoblast activity. The mice were euthanized, and then the whole body or isolated aortas were imaged using OptixMX3 (ART Advanced Research Technologies, Inc).

[4] = test system: aortic valves from the eNOS-/- mice; experiment: von Kossa (VK) staining of aortic valve sections; assay type: in vivo; settings: eNOS-/- mice after administration of sitagliptin (FIGS. 10a, 10b)
Protocol: Human aortic valve samples were fixed in 4% formalin solution for 24 hours, and then embedded in paraffin and sectioned to a thickness of 4 µm. In order to observe calcium deposition in the paraffin-embedded aortic valve and the cardiac basal segment, Von Kossa (VK) staining and Alizarin red (AR) staining were performed. For Von Kossa staining, the aortic valve fixed in formalin was washed with distilled water, and then exposed to 5% water-soluble AgNO3 and intense light at room temperature for 60 minutes.
as §2

[5] = test system: Human aortic valvular interstitial cells (VICs); experiment: Osteoblast differentiation (osteogenic ability) of human valvular interstitial cells; assay type: cell-based; settings: human VICs treated with DPP-4 plus sitagliptin (FIG. 11)
Protocol: Using human VICs, the role of DPP-4 in osteoblast differentiation was analyzed.
Human VICs were isolated from aortic valve leaflets according to a conventional cell isolation method, and VIC cells at passage 2 to 10 were used. The VIC cells were incubated with DPP-4 (R & D), sitagliptin or DETA-NONOate (Enzo Life Sciences).

In the case of `CC(C)(C)OC[C@@H]1C(=O)NCCN1C(=O)C[C@H](N)Cc1cc(F)c(F)cc1F` [evogliptin], the ALP activity inhibition [1] is reported as at most 50%.

`Cn1c(=O)cc(N2CCC[C@@H](N)C2)n(Cc2ccccc2C#N)c1=O` [alogliptin] gave an ALP activity inhibition [1] of at most 50%.

With `N#C[C@@H]1CCCN1C(=O)CNC12CC3CC(CC(O)(C3)C1)C2` [vildagliptin] the ALP activity inhibition [1] was at most 50%.

`CC#CCn1c(N2CCC[C@@H](N)C2)nc2c1c(=O)n(Cc1nc(C)c3ccccc3n1)c(=O)n2C` [linaglipin] showed an ALP activity inhibition [1] of at most 50%.

In the case of `COC(=O)[C@@H](N)CCCNC(=N)N[N+](=O)[O-]` [L-NAME, Nω-nitro-L-arginine methyl ester], the “DPP-4 expression in the aorta” value (DPP-4 [2]) is given as “significantly increases DPP-4 expression in the aorta”.

For `NCCN(CCN)[N+]([O-])=NO` [DETA-NO, DETA-NONOate], the NF-κB activity (NF-κB) was “reduced”, the DPP-4 promoter activity (DPP-4 promoter) was “inhibited by treatment with DETA-NO in a concentration-dependent manner” and the “expression of DPP-4 mRNA in the VSMCs” value (DPP-4 [3]; RT-PCR after 24 hours of treatment with DETA-NO (FIG. 7a)) was “decreased”. The “expression of DPP-4 protein in the VSMCs” value (DPP-4 [3]; immunoblot after 48 hours of treatment with DETA-NO (FIG. 7b)) was “also decreased”.

With `N[C@@H](CC(=O)N1CCn2c(nnc2C(F)(F)F)C1)Cc1cc(F)c(F)cc1F` [sitagliptin] the “aortic calcification in the living mice” value (eNOS-/- mice) was “reduced aortic calcification”, the “aortic calcification in VK-stained sections of the aortic valves” value [4] was “aortic calcification can be inhibited” and the “DPP-4-induced increase of the osteogenic ability of VICs” value [5] was “eliminated”.

In the case of `N#C[C@@H]1C[C@@H]2C[C@@H]2N1C(=O)[C@@H](N)C12CC3CC(CC(O)(C3)C1)C2` [saxagliptin], the ALP activity inhibition [1] is reported as at most 50%.

Source: patent EP3263134A1, “COMPOSITION FOR PREVENTING OR TREATING VALVE CALCIFICATION, CONTAINING DPP-4 INHIBITOR” (The Asan Foundation, priority 2015, dated 2016)
